Laboratory results published in publication PMC6214014, “Dendrimeric Poly(Epsilon-Lysine) Delivery Systems for the Enhanced Permeability of Flurbiprofen across the Blood-Brain Barrier in Alzheimer’s Disease” (International Journal of Molecular Sciences, 2018).
Values joined by “and” are separate entries in the source; they are usually repeats but may differ in a detail not shown here. Equal entries are not always repeated.

Columns and labels:
[1] = system: brain endothelial cells and Caco-2 cell monolayers; design: method as in PMID 23089576; conditions: cited from earlier work
[2] = system: γ-secretase enzyme; assay: Quantification of γ-secretase enzyme in C6 glial cells (sandwich ELISA); format: cell-based; conditions: 200 µM, 4 h incubation, untreated control 28.43 ± 8.32 pg/mL, n = 6
Protocol: The C6 glial cells seeded in a density of 5 × 10^4 cells per cm^2 and incubated at 37 °C and 5% CO2. The investigation is based on sandwich enzyme-linked immune-sorbent assay (ELISA) technology using γ-secretase enzyme kit (Abbexa Ltd., Cambridge, UK). C6 glial cells were cultured in 24-well plates at density 5 × 10^4 cells per cm^2, and at confluence, they were treated with 200 μM FP, […]-FP, or […]-FP dissolved in […] media. Wells containing untreated C6 cells were also included as a control. After 4 h incubation, cells were washed with PBS and lysed via freezing to -20 °C and thawing to room temperature 3 times. […] The collected samples were used immediately to avoid any degradation and denaturalisation. The standard curve of γ-secretase standards (supplied with kit) was constructed and the concentration of γ-secretase was calculated for each sample.

[3] = system: in vitro BBB model (bEnd.3 cells); assay: Penetration across the in vitro BBB model (bEnd.3 monolayer on Transwell inserts, HPLC); format: in vitro ADME, mouse; conditions: bEnd.3 Transwell, n = 6
Protocol: The lyophilised powders of synthesised molecules (G0K-FP and G1K-FP) as well as free drug (FP) were dissolved in the FBS-free; phenol-free culture media in a concentration of 200 µM. Quantitative analysis of drug and drug-attached dendrons penetration was conducted using HPLC (Agilent technology/1260 infinity, Stockport, UK). The analysis was carried out using a hydrophobic C18 column (150 × 4.6 mm) and a UV-detection wavelength 248 nm which is the λmax of FP [5]. The gradient of eluent of the mobile phase was run from 75:25 to 25:75 of water: acetonitrile over 20 min. The standard curve for each molecule was obtained to calculate the percentage of transported amount across the in vitro BBB model.
To establish an in vitro BBB model, bEnd.3 cells were cultured on microporous membrane (0.4 µm pore size) of 12-Transwell inserts (Fisher Scientific) with complete culture media. TEER values between apical and basolaterl chambers was measured using an Evom voltometer (Sarasota, FL, USA) to determine the day of maximum values indicating tight junction formation. The measurements were taken up to day 8 of culturing and compared to the results of HUVECs which were also cultured into Transwell-clear inserts. Cell-free Transwell inserts were included to exclude the resistance related to the inserts membrane alone. The apical chambers of bEnd.3 culture were then treated with 200 µM of each samples. After 1 and 4 h incubation, 200 µL samples were taken from the basolateral chambers and percentage of permeability calculated according to the following:PMaterial % = ((CAcceptor × VAcceptor)/(CDonor × VDonor)) × 100%(1) where PMaterial %: the percentage of permeability of the tested material, CAcceptor: the concentration of the tested material in basal chamber, VAcceptor: the volume of the culture media in the basal chamber, CDonor: the initial concentration of the tested material in the apical chamber, VDonor: the volume of the culture media in the apical chamber.

[4] = design: method as in PMID 7736686; conditions: cited from earlier work
[5] = system: γ-secretase; design: method as in PMID 20009055, PMID 18450517; conditions: at the target tissue site; cited from earlier work
[6] = system: bEnd.3 cells monolayer; design: method as in PMID 24280275; conditions: cited from earlier work
[7] = design: method as in PMID 7736686; conditions: cited from earlier work; remark: listed apart in the source
[8] = 1 h after applying 200 µM to apical chamber
[9] = 4 h after applying 200 µM to apical chamber

## paclitaxel
[1]
  fold greater permeability than paclitaxel alone: 12 fold

## CC(C(=O)O)c1ccc(-c2ccccc2)c(F)c1 (stereo not drawn) [FP, Flurbiprofen]
[2]
  γ-Secretase Enzyme Concentration (Mean ± SD): 8.2 pg/mL and 8.20 ± 3.80 pg/mL
[3]; [8]
  % Of Permeability (Mean ± SD): 2.71 ± 1.52%
[3]; [9]
  % Of Permeability (Mean ± SD): 8.50 ± 1.32%
[3]; 4 h after applying 200 µM to apical chamber, listed as Free FP
  % Of Permeability (Mean ± SD): less than 9%
[3]; 4 h after applying 200 µM to apical chamber, listed as free drug
  % Of Permeability (Mean ± SD): not more than 8.5%
[4]
  biological half-life: 4 h
  time to full excretion from the body: ≤ 24 h
[5]
  required therapeutic concentration for pharmacologically-significant effect on γ-secretase activity: 150–250 µM
[6]
  diffusion through bEnd.3 cells monolayer: approximately 10%
[7]
  water solubility: poorly water-soluble

## CC(C(=O)NCCCC[C@H](NC(=O)C(C)c1ccc(-c2ccccc2)c(F)c1)C(=O)NCCCC[C@H](NC(=O)[C@H](CCCCNC(=O)C(C)c1ccc(-c2ccccc2)c(F)c1)NC(=O)C(C)c1ccc(-c2ccccc2)c(F)c1)C(=O)N[C@@H](Cc1ccccc1)C(=O)O)c1ccc(-c2ccccc2)c(F)c1 (stereo partly drawn) [G1K-FP, Generation 1 lysine dendron-4Flurbiprofen]
[3]; [8]
  % Of Permeability (Mean ± SD): 4.3% and 4.32 ± 1.05%
[3]; [9]
  % Of Permeability (Mean ± SD): 14.8% and 14.79 ± 2.06%

## CC(C(=O)NCCCC[C@H](NC(=O)C(C)c1ccc(-c2ccccc2)c(F)c1)C(=O)N[C@@H](Cc1ccccc1)C(=O)O)c1ccc(-c2ccccc2)c(F)c1 (stereo partly drawn) [G0K-FP, Generation 0 lysine dendron-2Flurbiprofen]
[3]; [8]
  % Of Permeability (Mean ± SD): 5.3% and 5.31 ± 2.73%
[3]; [9]
  % Of Permeability (Mean ± SD): 12.5% and 12.48 ± 3.42%
